Results as given in patent publication US20230339968A1, “KRAS Gl2C INHIBITORS” (Eli Lilly and Company, priority 2019, published 2023).
Like-named read-outs stand apart in the source and are kept apart here.

What was measured:
[1] = tested on: H1792 (lung); test: CellTiterGlo Cell Proliferation Assay (2D), H1792; assay type: cell-based; settings: Homo sapiens, NCI-H1792, 96 hours
Protocol: (§1) The purpose of this assay is to evaluate the growth of KRas G12C mutant tumor lines following treatment with a test compound. A panel of tumor cell lines harboring KRas G12C or other KRas mutations are collected (Table 25). All cell lines are from ATCC or other sources indicated.
(§2) Typically cells are cultured in RPMI1640 or Dulbecco's modified Eagle's medium (DMEM, GIBCO) supplemented with 10% FBS (GIBCO, Invitrogen). […] The cells are treated with compound for 96 hours, and then are analyzed for viability using the CellTiterGlo® Luminescent Cell Viability Assay® (Promega #G7572 for 2D) according to manufacturer's instructions and an EnVision™ plate reader. Nonlinear regression and sigmoidal dose-response curves are used to calculate the half maximal inhibitory concentration (IC50) with GraphPad Prism 4® software.

[2] = tested on: A549 (lung); test: CellTiterGlo Cell Proliferation Assay (2D), A549 (KRas G12S); assay type: cell-based; settings: Homo sapiens; for inhibition at 10 µM: read-out: % inh. @ 10 μM
Protocol: as §1, §2

[3] = tested on: Calu-1 (lung); test: CellTiterGlo Cell Proliferation Assay (2D), Calu-1; assay type: cell-based; settings: Homo sapiens, 96 hours
Protocol: as §1, §2

[4] = tested on: SW1463 (colon); test: CellTiterGlo Cell Proliferation Assay (2D), SW1463; assay type: cell-based; settings: Homo sapiens, 96 hours
Protocol: as §1, §2

[5] = tested on: H2122 (lung); test: CellTiterGlo Cell Proliferation Assay (2D), H2122; assay type: cell-based; settings: Homo sapiens, NCI-H2122, 96 hours
Protocol: as §1, §2

[6] = tested on: KYSE-410 (esoph); test: CellTiterGlo Cell Proliferation Assay (2D), KYSE-410; assay type: cell-based; settings: Homo sapiens, 96 hours
Protocol: as §1, §2

[7] = tested on: LXFA-983L (lung); test: CellTiterGlo Cell Proliferation Assay (2D), LXFA-983L; assay type: cell-based; settings: 96 hours
Protocol: as §1, §2

[8] = tested on: pERK; test: In vivo pharmacodynamic effect, pERK Meso Scale Discovery ELISA of tumor lysates, lung cancer H358 xenograft model; design: species or system mouse; settings: for inhibition at 30 mg/kg: read-out: % inhibition of pERK
Protocol: (§3) The purpose of these assays is to evaluate in vivo target inhibition of an orally administered test compound. Human lung cancer H358 cells, or pancreatic cancer MiaPaca-2 cells, are implanted into nude mice xenograft tumor models. H358 or MiaPaca-2 cells (10×106 in a 1:1 Matrigel® mix, 0.2 mL total volume) are implanted by subcutaneous injection in hind leg of nude female mice (Harlan Laboratories). […] Treatment is initiated with oral administration (gavage) of a test compound or vehicle (20% Captisol®, 25 mM phosphate, pH 2.0 in 0.2 mL) when the tumor size reaches approximately 300 mg.
(§4) For in vivo target inhibition and PD analysis, tumors are ground by mortar and pestle on dry ice and tumor fragments are added to 800 μL of lysis buffer containing 1% Triton™ X-100, 25 mM Tris pH7.5, 150 mM sodium chloride, 1 mM EDTA, and 1 mM EGTA with Halt protease and phosphatase inhibitor cocktail (Thermo Scientific, cat. no. 1861281) in lysing matrix D tubes (MP Biomedical®, cat. no. 6913-500) with one additional large bead (MP Biomedical® ¼″ ceramic sphere bead cat. no. 6540-412) per tube. Tumor fragments are homogenized in a Thermo Bio101® fast prep (FP120) at setting 4 for […] while cold for a total of 2 times. Lysates are spun at 14,000 rpm for 10 minutes at 4° C. to clarify. Protein estimation is done on the lysate supernatant using a BioRad Dc® protein assay and lysates are diluted in complete lysis/binding buffer from the Ras GTPase Chemi ELISA Kit® (Active Motif, cat. no. 52097). The active KRas ELISA is performed as follows: glutathione-coated ELISA wells are incubated with diluted RAF1-GST in complete lysis/binding buffer for 1 hour at 4° C. with gentle agitation. Wells are washed 3 times with wash buffer and 100 μg of lysates are added to each well and incubated at ambient temperature for 1 hour with mild agitation. The wells are washed an additional 3 times, then primary antibody, diluted in antibody binding buffer, is added to each well. The plates are incubated for 1 hour. The wells are washed 3 more times before adding HRP-conjugated secondary antibody, diluted in antibody binding buffer, to each well. The plates are incubated at ambient temperature for 1 hour. ELISA wells are washed 4 times, chemiluminescent reagent is added and then luminescence is read. For pERK Meso Scale Discovery ELISA, 25 μg of protein containing 0.1% SDS is used; Meso Scale Discovery Whole Cell Lysate Kit for pERK is provided by Meso Scale Discovery.
(§5) The purpose of this assay is to evaluate the dose dependent in vivo target inhibition and pharmacodynamic effects in a lung cancer model. The test compound is dosed in lung cancer H358 mouse xenograft model at a dose range from 12.5 to 100 mg/kg. The tumor samples are collected 8 hours post a single dose. The tumor lysates are prepared and the inhibition of pERKand active KRas is measured as described above.
(§6) The purpose of this assay is to evaluate the time dependent in vivo target inhibition and pharmacodynamic effects in a lung cancer model. […] After a single dose, the tumor samples are harvested at 2, 4, 8, 12 and 24 hour post doing. The tumor lysates are prepared and the inhibition of pERK and active KRas is measured as described above.

[9] = target: active KRas (Homo sapiens, UniProt P01116, G12C); test: In vivo target inhibition, active KRas ELISA of tumor lysates, lung cancer H358 xenograft model; design: from tissue; host or cells: H358 xenograft tumours grown subcutaneously in nude female mice; settings: NCI-H358, mouse
Sequence of active KRas (P01116 1-188 isoform P01116-2 G12C): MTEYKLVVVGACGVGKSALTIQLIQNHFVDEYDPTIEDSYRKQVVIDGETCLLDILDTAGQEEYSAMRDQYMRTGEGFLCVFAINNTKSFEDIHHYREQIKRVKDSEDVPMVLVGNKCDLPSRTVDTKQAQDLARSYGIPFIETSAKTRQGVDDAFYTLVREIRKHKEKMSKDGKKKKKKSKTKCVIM
Protocol: as §3, §4, §5, §6

[10] = A549 (lung, KRas G12S), 2D, 96 hours
[11] = A549 (lung, KRas G12S), 2D, 96 hours, 10 μM
[12] = Mus musculus, NCI-H358, po, 8 h, read-out: % Inhibition of pERK

IC50 [1] [nM] | IC50 [2, 10] [nM] | IC50 [3] [nM] | IC50 [4] [nM] | IC50 [5] [nM] | Compound | inhibition at 10 µM [1] [%] | inhibition at 10 µM [2, 11] [%] | inhibition at 10 µM [3] [%] | inhibition at 10 µM [4] [%] | inhibition at 10 µM [5] [%] | IC50 [6] [nM] | inhibition at 10 µM [6] [%] | IC50 [7] [nM] | inhibition at 10 µM [7] [%] | also measured
3010 | > 10000 | > 10000 | 6 | 1170 | C=CC(=O)N1CCN2C(=O)c3cc(Cl)c(-c4ccc(F)c5sc(N)nc45)c(Cl)c3OCC[C@H]2C1 (atropisomer, axis not shown) [Example 1, (13aS)-9-(2-Amino-7-fluoro-1,3-benzothiazol-4-yl)-8,10-dichloro-2-prop-2-enoyl-1,3,4,12,13,13a-hexahydropyrazino[2,1-d][1,5]benzoxazocin-6-one] | 63.6 | 19.1 | 45.4 | 95.3 | 80.4 | 5840 | 64.6 | 3610 | 78.6 | 
2030 | 9500 | 2920 | 14 | 1360 | C=CC(=O)N1CCN2C(=O)c3cc(F)c(-c4ccc(F)c5sc(N)c(C#N)c45)c(Cl)c3OC[C@H]2C1 [Example 36, 4-[(4aR)-7-Chloro-9-fluoro-11-oxo-3-prop-2-enoyl-2,4,4a,5-tetrahydro-1H-pyrazino[2,1-c][1,4]benzoxazepine-8-yl]-2-amino-7-fluoro-benzothiophene-3-carbonitrile] | 97.4 | 62.1 | 77.4 | 82.7 | 92.8 | > 10000 | 43.1 | > 10000 | 88 | % inhibition of pERK ([8]; H358 model, single dose 30 mg/kg, 8 h, 30 mg/kg): 86.9%; inhibition at 30 mg/kg ([8]; Mus musculus, NCI-H358, 2 h, H358 model, single dose 30 mg/kg, 2 h): 79.7%; inhibition at 30 mg/kg ([8]; Mus musculus, NCI-H358, 4 h, H358 model, single dose 30 mg/kg, 4 h): 84.2%; inhibition at 30 mg/kg ([8]; Mus musculus, NCI-H358, 8 h, H358 model, single dose 30 mg/kg, 8 h): 82.6%; inhibition at 30 mg/kg ([8]; Mus musculus, NCI-H358, 24 h, H358 model, single dose 30 mg/kg, 24 h): 48.8%; inhibition at 30 mg/kg ([9]; H358 model, single dose 30 mg/kg, 2 h, read-out: % Inhibition of Active Ras): 72.6%; inhibition at 30 mg/kg ([9]; H358 model, single dose 30 mg/kg, 4 h, read-out: % Inhibition of Active Ras): 72.4%; inhibition at 30 mg/kg ([9]; H358 model, single dose 30 mg/kg, 8 h, read-out: % Inhibition of Active Ras): 88.5%; inhibition at 30 mg/kg ([9]; H358 model, single dose 30 mg/kg, 24 h, read-out: % Inhibition of Active Ras): 43.2%

Compound | IC50 [1] [nM] | IC50 [2, 10] [nM] | IC50 [3] [nM] | IC50 [4] [nM] | IC50 [5] [nM] | inhibition at 10 µM [1] [%] | inhibition at 10 µM [2, 11] [%] | inhibition at 10 µM [3] [%] | inhibition at 10 µM [4] [%] | inhibition at 10 µM [5] [%] | IC50 [6] [nM] | inhibition at 10 µM [6] [%] | IC50 [7] [nM] | inhibition at 10 µM [7] [%] | also measured
C=CC(=O)N1CCN2C(=O)c3cc(F)c(-c4ccc(F)c5sc(N)c(C#N)c45)c(Cl)c3OCC[C@H]2C1 [Example 35, 4-[(13aS)-10-Chloro-8-fluoro-6-oxo-2-prop-2-enoyl-1,3,4,12,13,13a-hexahydropyrazino[2,1-d][1,5]benzoxazocin-9-yl]-2-amino-7-fluoro-benzothiophene-3-carbonitrile] | 1410 | > 10000 | 480 | 5 | 900 | 81.7 |  | 56 | 94.3 | 79.7 | 7970 | 68.3 | > 10000 | 83.1 | inhibition at 10 µM ([2]; A549, 96 h): 31.6%; inhibition at 30 mg/kg ([8]; Mus musculus, NCI-H358, 2 h): 67.9%; inhibition at 30 mg/kg ([8]; Mus musculus, NCI-H358, 4 h): 73.2%; inhibition at 30 mg/kg ([8]; Mus musculus, NCI-H358, 8 h): 82.6%; inhibition at 30 mg/kg ([8]; Mus musculus, NCI-H358, 12 h): 71.1%; inhibition at 30 mg/kg ([8]; Mus musculus, NCI-H358, 24 h): 65.2%; inhibition at 12.5 mg/kg [8, 12]: 82.2%; inhibition at 25 mg/kg [8, 12]: 85.3%; inhibition at 50 mg/kg [8, 12]: 90.6%; inhibition at 100 mg/kg [8, 12]: 88.9%; inhibition at 12.5 mg/kg ([9]; po, read-out: % Inhibition Active RAS, H358 xenograft mice, single oral dose 12.5 mg/kg, 8 hours): 81%; inhibition at 25 mg/kg ([9]; po, read-out: % Inhibition Active RAS, H358 xenograft mice, single oral dose 25 mg/kg, 8 hours): 73.4%; inhibition at 50 mg/kg ([9]; po, read-out: % Inhibition Active RAS, H358 xenograft mice, single oral dose 50 mg/kg, 8 hours): 94%; inhibition at 100 mg/kg ([9]; po, read-out: % Inhibition Active RAS, H358 xenograft mice, single oral dose 100 mg/kg, 8 hours): 91.9%; inhibition at 30 mg/kg ([9]; read-out: % Inhibition of Active Ras, H358 model, single dose 30 mg/kg, 2 h): 7.6%; inhibition at 30 mg/kg ([9]; read-out: % Inhibition of Active Ras, H358 model, single dose 30 mg/kg, 4 h): 65.7%; inhibition at 30 mg/kg ([9]; read-out: % Inhibition of Active Ras, H358 model, single dose 30 mg/kg, 8 h): 80.2%; inhibition at 30 mg/kg ([9]; read-out: % Inhibition of Active Ras, H358 model, single dose 30 mg/kg, 12 h): 39.3%; inhibition at 30 mg/kg ([9]; read-out: % Inhibition of Active Ras, H358 model, single dose 30 mg/kg, 24 h): 54.9%
